Measurements as given in patent publication US20210071180A1, “MICRORNA 584-5P COMPOSITIONS AND METHODS FOR TREATING CANCER” (BOARD OF REGENTS, THE UNIVERSY OF TEXAS SYSTEM, priority 2018, published 2021).

Columns and labels:
Type in all cases: cell-based
MB cells = experiment: FACS analysis of cell cycle progression; details: vs miR-NC or scramble-siRNA
Description: To gain more insight into the tumor-suppressing and VCR-sensitizing activities of miR-584-5p, it was determined how the miR-584-5p mimic affected cell cycle progression of MB cells. […] Bar graphs show DNA histograms quantified using the FlowJo software. In FIG. 9A, the p-values were determined by two-way ANOVA followed by Tukey's multiple-comparisons test. Error bars represent mean±SEM. […] In FIG. 9B, the p-values were calculated using standard Student t-tests. Error bars represent mean±SEM. […] Next, it was determined whether miR-584-5p's effect on cell cycle progression may be mediated via its target genes eIF4E3/HDAC1. […] Bar graphs show dot plots quantified using the FlowJo software. Next, it was tested whether miR-584-5p-induced cell cycle arrest led to apoptosis of MB cells. […] In FIG. 8C, the bar graphs reflect DNA histograms quantified using the FlowJo software and in FIG. 8D and FIG. 9C, the bar graphs show dot plots quantified using the FlowJo software. The p-values for panels 8A-D and FIG. 9C were determined by two-way ANOVA followed by Tukey's multiple-comparisons test. Error bars represent mean±SEM. ****, p<0.0001; ***, p<0.001; **, p<0.01; *, p<0.05.
Flow cytometry analysis of cell cycle and apoptosis. […] Cells were analyzed using either FACScantoII or LSRII cytometers, and data were quantified using FlowJo 10.2 software.

[1] = test system: TUBB3, TUBB2a, and TUBB2b; experiment: qPCR analysis of β-tubulin isotypes; details: miR-584-5p-overexpressing cells
Description: DNA is stained with DAPI (blue), whereas spindle is stained with β-tubulin (red) (below).
VCR disrupts the integrity of the mitotic spindle and destabilizes microtubules (George, P., Journey, L. J. & Goldstein, M. N. J Natl Cancer Inst 35, 355-375 (1965)). Therefore, it was tested whether miR-584-5p and its target genes might affect microtubule dynamics. First, expression of tubulins was deteremined because VCR resistance has been associated with altered expression of tubulin isotypes (Sirotnak, F. M., Danenberg, K. D., Chen, J., Fritz, F. & Danenberg, P. V. Biochem Biophys Res Commun 269, 21-24, (2000)). […] In FIG. 12A, the p-values were calculated using standard Student t-tests. Error bars represent mean±SEM. ****, p<0.0001. […] The p-values were calculated using standard Student t-tests. Error bars represent mean±SEM. To further test how miR-584-5p and its target genes affect spindle integrity, immunofluorescence analysis was performed on miR-584-5p-overexpressing or eIF4E3/HDAC1-silenced MB cells. […] In FIG. 11F, the p-values were calculated using standard Student t-tests. Error bars represent mean±SEM. […] In FIG. 11H, The p-values were calculated using standard Student t-tests. Error bars represent mean±SEM. ****, p<0.0001; ***, p<0.001; **, p<0.01; *, p<0.05. Quantitative real-time PCR. Total RNA was extracted using miRNAeasy kit (Qiagen). […]

U20S-DR-GFP cells = experiment: ISceI-based DR-GFP reporter assay of homologous recombination; details: cells stably expressing DR-GFP reporter, FACS
Description: Bar graphs next to images show average number of 53BP1 foci/cell. The p-values were determined by two-way ANOVA followed by Sidak's multiple-comparisons test. Error bars represent mean±SEM. Because miR-584-5p induces apoptosis, it was reasoned that DNA strand breaks induced by miR-584-5p and eIF4E3/HDAC1 silencing may not be properly repaired. To confirm those findings, a functional assay was performed to monitor homologous recombination (HR) because HR-dependent events repair IR-induced double-strand breaks in G2 phase. The ISceI-based DR-GFP reporter assay, which measures the frequency of double-strand break repair by HR (Gunn, A., Bennardo, N., Cheng, A. & Stark, J. M. Journal of Biological Chemistry 286, 42470-42482, (2011); Pierce, A. J., Johnson, R. D., Thompson, L. H. & Jasin, M. Genes & Development 13, 2633-2638, (1999); and Stark, J. M., Pierce, A. J., Oh, J., Pastink, A. & Jasin, M. Molecular and Cellular Biology 24, 9305-9316, (2004)), was used. […] U20S-DR-GFP cells were transfected with miR-NC or miR-584-5p or scramble-siRNA or eIF4E3/HDAC1-siRNAs followed by transfection with pCAGGS vector with ISceI/GFP. I-SceI expression leads to double-strand breaks that HR repairs by using the wild-type GFP, resulting in GFP^+ cells. […] The p-values were calculated using either Student t-tests (mimic) or one-way ANOVA followed by Dunnett's multiple-comparisons test (siRNAs). […]

## miR-584-5p: microRNA mimic; nucleotide sequence UUAUGGUUUGCCUGGGACUGAG (SEQ ID NO: 1); purchased from Thermofisher (chemistry not given here)
MB cells
  cell cycle progression: G2/M cell cycle arrest
[1]
  transcript levels of TUBB3, TUBB2a, and TUBB2b: significantly reduced transcript levels
U20S-DR-GFP cells
  GFP-positive cells (homologous recombination events): significantly fewer GFP-positive cells
